Data on 14 molecules can be found in US11993599B2, “Therapeutic compounds” (Genentech, Inc., priority 2021, dated 2024).

One test concerns the target BRM (Homo sapiens, UniProt P51531). The test can be described thus: Immunofluorescence assay for BRM degradation in SW1573 cells. It is filed as cell-based. The note with it: 20 hours incubation; for DC50: immunofluorescence mean nuclear signal, read-out: BRM IF Degradation IC50; for BRM IF Degradation Sinf (%): normalized to a known degrader control. Details: treated overnight at 4° C. with either BRM primary antibody (Cell signaling Cat #11966) or BRG primary antibody; endogenous in cells; host or cells: SW1573. An outline of the steps:
(§1)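 After a 20 h incubation with test compound, SW1573 cells are fixed and stained for BRM or BRG1 plus Hoechst. Per-cell mean nuclear intensity, referenced to a degrader control, is fit concentration-dependently with unconstrained maximum for Dmax.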

A further test addresses T1, BRG1 (Homo sapiens, UniProt P51532).
T1 construct: either BRM primary antibody (Cell signaling Cat #11966) or BRG primary antibody (Abcam, ab 110641); endogenous in cells; host or cells: SW1573
The experiment in a line: Immunofluorescence assay for BRG1 degradation in SW1573 cells. It is filed as cell-based. The note with it: 20 hours incubation; for DC50: immunofluorescence mean nuclear signal, read-out: BRG1 IF Degradation IC50; for Dmax: SW1573, 20 h, normalized to a known degrader control, read-out: BRG1 IF Degradation Sinf (%). An outline of the steps:
as §1

BRM, sequence (P51531 whole entry): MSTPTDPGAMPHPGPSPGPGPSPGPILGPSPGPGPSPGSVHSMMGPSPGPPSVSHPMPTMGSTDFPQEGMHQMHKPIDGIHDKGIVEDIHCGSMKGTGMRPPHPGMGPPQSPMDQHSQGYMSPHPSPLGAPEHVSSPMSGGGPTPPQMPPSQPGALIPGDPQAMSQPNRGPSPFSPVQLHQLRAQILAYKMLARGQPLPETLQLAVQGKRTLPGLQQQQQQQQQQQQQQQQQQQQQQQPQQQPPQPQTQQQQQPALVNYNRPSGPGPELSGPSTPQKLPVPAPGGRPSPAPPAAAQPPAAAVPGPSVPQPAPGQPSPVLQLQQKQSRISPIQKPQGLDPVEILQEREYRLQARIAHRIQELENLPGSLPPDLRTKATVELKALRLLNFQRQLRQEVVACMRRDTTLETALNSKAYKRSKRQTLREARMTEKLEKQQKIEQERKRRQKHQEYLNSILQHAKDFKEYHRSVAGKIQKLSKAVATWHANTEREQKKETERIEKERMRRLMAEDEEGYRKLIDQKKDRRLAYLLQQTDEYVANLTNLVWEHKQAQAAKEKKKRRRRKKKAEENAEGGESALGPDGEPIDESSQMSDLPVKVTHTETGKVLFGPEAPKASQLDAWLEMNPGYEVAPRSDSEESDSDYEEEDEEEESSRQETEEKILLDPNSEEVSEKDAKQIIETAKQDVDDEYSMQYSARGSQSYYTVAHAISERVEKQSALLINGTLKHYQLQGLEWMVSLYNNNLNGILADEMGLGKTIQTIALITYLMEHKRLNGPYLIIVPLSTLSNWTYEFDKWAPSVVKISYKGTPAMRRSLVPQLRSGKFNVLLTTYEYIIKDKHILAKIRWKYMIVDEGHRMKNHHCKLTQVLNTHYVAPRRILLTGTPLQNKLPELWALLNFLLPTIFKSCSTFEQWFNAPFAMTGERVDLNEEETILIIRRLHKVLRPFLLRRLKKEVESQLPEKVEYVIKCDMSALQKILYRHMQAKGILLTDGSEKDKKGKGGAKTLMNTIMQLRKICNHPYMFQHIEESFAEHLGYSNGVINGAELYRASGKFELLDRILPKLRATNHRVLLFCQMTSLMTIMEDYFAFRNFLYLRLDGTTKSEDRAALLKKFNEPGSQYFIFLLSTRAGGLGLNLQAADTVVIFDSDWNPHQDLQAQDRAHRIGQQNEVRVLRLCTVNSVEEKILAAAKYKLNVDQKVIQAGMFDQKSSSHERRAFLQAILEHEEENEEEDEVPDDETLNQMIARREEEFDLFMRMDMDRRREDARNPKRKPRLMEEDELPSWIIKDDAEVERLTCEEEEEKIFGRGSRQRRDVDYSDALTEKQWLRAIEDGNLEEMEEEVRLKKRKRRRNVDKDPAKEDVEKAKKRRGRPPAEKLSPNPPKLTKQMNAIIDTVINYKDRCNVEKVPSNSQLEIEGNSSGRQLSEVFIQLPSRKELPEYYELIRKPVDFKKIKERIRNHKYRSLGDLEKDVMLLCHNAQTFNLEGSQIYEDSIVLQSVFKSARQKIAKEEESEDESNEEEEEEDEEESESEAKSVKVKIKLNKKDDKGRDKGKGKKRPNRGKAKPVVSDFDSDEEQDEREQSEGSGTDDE
T1 sequence (P51532 whole entry): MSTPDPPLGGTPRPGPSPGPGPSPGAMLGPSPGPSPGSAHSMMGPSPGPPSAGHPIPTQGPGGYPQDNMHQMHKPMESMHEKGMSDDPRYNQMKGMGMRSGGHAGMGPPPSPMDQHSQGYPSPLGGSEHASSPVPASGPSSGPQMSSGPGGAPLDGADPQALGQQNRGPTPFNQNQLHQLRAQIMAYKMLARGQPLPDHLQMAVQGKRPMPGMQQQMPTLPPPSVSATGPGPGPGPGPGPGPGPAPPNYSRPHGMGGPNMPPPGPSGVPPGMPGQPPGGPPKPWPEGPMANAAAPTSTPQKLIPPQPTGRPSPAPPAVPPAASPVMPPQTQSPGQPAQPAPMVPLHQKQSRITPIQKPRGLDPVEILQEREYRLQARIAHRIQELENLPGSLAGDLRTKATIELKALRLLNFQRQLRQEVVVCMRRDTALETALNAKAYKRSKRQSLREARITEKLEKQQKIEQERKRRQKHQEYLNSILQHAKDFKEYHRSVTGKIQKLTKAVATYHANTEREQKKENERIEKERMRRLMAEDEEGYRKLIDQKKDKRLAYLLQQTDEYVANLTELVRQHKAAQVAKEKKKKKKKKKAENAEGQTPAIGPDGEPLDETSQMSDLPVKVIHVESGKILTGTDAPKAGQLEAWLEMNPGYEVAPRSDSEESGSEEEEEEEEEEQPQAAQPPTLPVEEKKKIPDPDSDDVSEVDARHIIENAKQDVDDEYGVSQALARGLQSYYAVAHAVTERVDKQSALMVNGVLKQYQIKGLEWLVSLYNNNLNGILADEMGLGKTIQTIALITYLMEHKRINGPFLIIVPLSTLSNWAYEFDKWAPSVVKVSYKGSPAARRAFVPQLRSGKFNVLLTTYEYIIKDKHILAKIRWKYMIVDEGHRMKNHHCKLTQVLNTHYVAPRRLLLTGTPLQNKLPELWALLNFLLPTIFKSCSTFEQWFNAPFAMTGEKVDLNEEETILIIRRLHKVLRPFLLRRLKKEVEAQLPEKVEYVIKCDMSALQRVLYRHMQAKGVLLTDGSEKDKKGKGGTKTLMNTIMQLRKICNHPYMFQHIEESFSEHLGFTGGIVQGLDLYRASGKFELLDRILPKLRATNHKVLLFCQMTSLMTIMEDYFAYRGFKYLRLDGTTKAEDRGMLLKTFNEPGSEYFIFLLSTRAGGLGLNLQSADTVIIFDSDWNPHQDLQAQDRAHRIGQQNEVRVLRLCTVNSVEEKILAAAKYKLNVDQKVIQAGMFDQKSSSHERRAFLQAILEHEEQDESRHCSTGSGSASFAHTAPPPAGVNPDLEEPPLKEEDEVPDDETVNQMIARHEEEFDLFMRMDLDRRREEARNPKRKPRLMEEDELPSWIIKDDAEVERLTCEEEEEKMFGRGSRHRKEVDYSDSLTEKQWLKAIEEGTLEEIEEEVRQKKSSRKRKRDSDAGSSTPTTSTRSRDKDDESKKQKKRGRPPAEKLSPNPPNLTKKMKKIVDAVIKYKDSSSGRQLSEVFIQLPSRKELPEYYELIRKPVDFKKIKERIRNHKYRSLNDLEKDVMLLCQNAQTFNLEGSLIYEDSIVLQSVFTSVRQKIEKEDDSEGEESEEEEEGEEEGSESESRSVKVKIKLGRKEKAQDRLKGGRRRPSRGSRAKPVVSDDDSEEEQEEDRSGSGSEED

Regarding `Nc1nnc(-c2ccccc2O)cc1N1CC2CCC(C1)N2c1ccnc(C#CCN2CCC23CCC3)c1` [Compound 235, 2-[6-amino-5-[8-[2-[3-(1-azaspiro[3.3]heptan-1-yl)prop-1-ynyl]-4-pyridyl]-3,8-diazabicyclo[3.2.1]octan-3-yl]pyridazin-3-yl]phenol], at BRM, the DC50 was in the range of 10 to 100 nM and the “BRM IF Degradation Sinf (%)” value is given as “F (F indicates −71%-−120%)”. For the same molecule, on BRG1, the DC50 is less than 10 nM and the Dmax is 30 to 70%.

As to `CS(=O)(=O)N1CCC2(CN(CC#Cc3cc(N4C5CCC4CN(c4cc(-c6ccccc6O)nnc4N)C5)ccn3)C2)C1` [Compound 236, 2-[6-amino-5-[8-[2-[3-(7-methylsulfonyl-2,7-diazaspiro[3.4]octan-2-yl)prop-1-ynyl]-4-pyridyl]-3,8-diazabicyclo[3.2.1]octan-3-yl]pyridazin-3-yl]phenol], on BRM, the DC50 was greater than 100 nM and the “BRM IF Degradation Sinf (%)” value is on record as “F (F indicates −71%-−120%)”. At BRG1, the DC50 was in the range of 10 to 100 nM and the Dmax was in the range of 0 to 30%.

Regarding `N#Cc1ccc(C2CN(CC#Cc3cc(N4C5CCC4CN(c4cc(-c6ccccc6O)nnc4N)C5)ccn3)C2)cc1` [Compound 237, 4-[1-[3-[4-[3-[3-amino-6-(2-hydroxyphenyl)pyridazin-4-yl]-3,8-diazabicyclo[3.2.1]octan-8-yl]-2-pyridyl]prop-2-ynyl]azetidin-3-yl]benzonitrile], on BRM, the DC50 fell in the range of 10 to 100 nM and the “BRM IF Degradation Sinf (%)” value is recorded as “E (E indicates −30%-−70%)”. Also, at BRG1, the DC50 lay within 10 to 100 nM and the Dmax was in the range of 30 to 70%.

Turning to `Nc1nnc(-c2ccccc2O)cc1N1CC2CCC(C1)N2c1ccnc(C#CCN2CC(F)(C3CC3)C2)c1` [Compound 238, 2-[6-amino-5-[8-[2-[3-(3-cyclopropyl-3-fluoro-azetidin-1-yl)prop-1-ynyl]-4-pyridyl]-3,8-diazabicyclo[3.2.1]octan-3-yl]pyridazin-3-yl]phenol], at BRM, the DC50 lay within 10 to 100 nM and the “BRM IF Degradation Sinf (%)” value is recorded as “E (E indicates −30%-−70%)”. In addition, at BRG1, the DC50 is less than 10 nM and the Dmax lay within 30 to 70%.

Turning to `CC1CCN(CC#Cc2cc(N3C4CCC3CN(c3cc(-c5ccccc5O)nnc3N)C4)ccn2)CCC1(C)O` (stereo not shown) [Compound 239, 1-[3-[4-[3-[3-amino-6-(2-hydroxyphenyl)pyridazin-4-yl]-3,8-diazabicyclo[3.2.1]octan-8-yl]-2-pyridyl]prop-2-ynyl]-4,5-dimethyl-azepan-4-ol], on BRM, the DC50 was less than 10 nM and the “BRM IF Degradation Sinf (%)” value was “E (E indicates −30%-−70%)”. Moreover, at BRG1, the DC50 is less than 10 nM and the Dmax was 30 to 70%.

On to `CC1(O)CCCCN(CC#Cc2cc(N3C4CCC3CN(c3cc(-c5ccccc5O)nnc3N)C4)ccn2)C1` (stereo not shown) [Compound 240, 1-[3-[4-[3-[3-amino-6-(2-hydroxyphenyl)pyridazin-4-yl]-3,8-diazabicyclo[3.2.1]octan-8-yl]-2-pyridyl]prop-2-ynyl]-3-methyl-azepan-3-ol], for which, on BRM, the DC50 is 10 to 100 nM and the “BRM IF Degradation Sinf (%)” value is “F (F indicates −71%-−120%)”. In addition, at BRG1, the DC50 fell in the range of 10 to 100 nM and the Dmax was 30 to 70%.

For the molecule `Nc1nnc(-c2ccccc2O)cc1N1CC2CCC(C1)N2c1ccnc(C#CCN2CCCCC(O)(CF)C2)c1` (stereo not shown) [Compound 241, 1-[3-[4-[3-[3-amino-6-(2-hydroxyphenyl)pyridazin-4-yl]-3,8-diazabicyclo[3.2.1]octan-8-yl]-2-pyridyl]prop-2-ynyl]-3-(fluoromethyl)azepan-3-ol], at BRM, the DC50 was in the range of 10 to 100 nM and the “BRM IF Degradation Sinf (%)” value is recorded as “E (E indicates −30%-−70%)”. Moreover, at BRG1, the DC50 was less than 10 nM and the Dmax fell in the range of 0 to 30%.

Turning to `Nc1nnc(-c2ccccc2O)cc1N1CC2CCC(C1)N2c1ccnc(C#CCN2CCCCC(O)C2)c1` (stereo not shown) [Compound 242, 1-[3-[4-[3-[3-amino-6-(2-hydroxyphenyl)pyridazin-4-yl]-3,8-diazabicyclo[3.2.1]octan-8-yl]-2-pyridyl]prop-2-ynyl]azepan-3-ol], at BRM, the DC50 was less than 10 nM and the “BRM IF Degradation Sinf (%)” value is “F (F indicates −71%-−120%)”. For the same molecule, on BRG1, the DC50 was less than 10 nM and the Dmax was 30 to 70%.

With `CC1(F)CCCCN(CC#Cc2cc(N3C4CCC3CN(c3cc(-c5ccccc5O)nnc3N)C4)ccn2)C1` (stereo not shown) [Compound 243, 2-[6-amino-5-[8-[2-[3-(3-fluoro-3-methyl-azepan-1-yl)prop-1-ynyl]-4-pyridyl]-3,8-diazabicyclo[3.2.1]octan-3-yl]pyridazin-3-yl]phenol], on BRM, the DC50 lay within 10 to 100 nM and the “BRM IF Degradation Sinf (%)” value is “F (F indicates −71%-−120%)”. Moreover, on BRG1, the DC50 was less than 10 nM and the Dmax was in the range of 30 to 70%.

On to `CC1(O)CCCN(CC#Cc2cc(N3C4CCC3CN(c3cc(-c5ccccc5O)nnc3N)C4)ccn2)CC1` (stereo not shown) [Compound 244, 1-[3-[4-[3-[3-amino-6-(2-hydroxyphenyl)pyridazin-4-yl]-3,8-diazabicyclo[3.2.1]octan-8-yl]-2-pyridyl]prop-2-ynyl]-4-methyl-azepan-4-ol], for which, on BRM, the DC50 is 10 to 100 nM and the “BRM IF Degradation Sinf (%)” value is given as “E (E indicates −30%-−70%)”. Besides, on BRG1, the DC50 is less than 10 nM and the Dmax lay within 30 to 70%.

Turning to `Nc1nnc(-c2ccccc2O)cc1N1CC2CCC(C1)N2c1ccnc(C#CCN2CCCCCC2)n1` [Compound 245, 2-(6-amino-5-(8-(2-(3-(azepan-1-yl)prop-1-yn-1-yl)pyrimidin-4-yl)-3,8-diazabicyclo[3.2.1]octan-3-yl)pyridazin-3-yl)phenol], on BRM, the DC50 is less than 10 nM and the “BRM IF Degradation Sinf (%)” value is “F (F indicates −71%-−120%)”. Moreover, on BRG1, the DC50 was less than 10 nM and the Dmax was 30 to 70%.

`Nc1nnc(-c2ccccc2O)cc1N1CC2CCC(C1)N2c1cnnc(C#CCN2CCCCCC2)c1` [Compound 246, 2-(6-amino-5-(8-(6-(3-(azepan-1-yl)prop-1-yn-1-yl)pyridazin-4-yl)-3,8-diazabicyclo[3.2.1]octan-3-yl)pyridazin-3-yl)phenol]: on BRM, the DC50 was in the range of 10 to 100 nM and the “BRM IF Degradation Sinf (%)” value is listed as “F (F indicates −71%-−120%)”. At BRG1, the DC50 was less than 10 nM and the Dmax lay in the range of 71 to 120%.

Turning to `Nc1nnc(-c2ccccc2O)cc1N1CC2CCC(C1)N2c1cc(C#CCN2CCCCCC2)ncn1` [Compound 247, 2-(6-amino-5-(8-(6-(3-(azepan-1-yl)prop-1-yn-1-yl)pyrimidin-4-yl)-3,8-diazabicyclo[3.2.1]octan-3-yl)pyridazin-3-yl)phenol], at BRM, the DC50 is less than 10 nM and the “BRM IF Degradation Sinf (%)” value is listed as “F (F indicates −71%-−120%)”. On BRG1, the DC50 was less than 10 nM and the Dmax was in the range of 71 to 120%.

On to `Nc1nnc(-c2ccccc2O)cc1N1CCC2(CCN(c3ccnc(C#CCN4CCCCCC4)c3)CC2)CC1` [Compound 249, 2-(6-amino-5-(9-(2-(3-(azepan-1-yl)prop-1-yn-1-yl)pyridin-4-yl)-3,9-diazaspiro[5.5]undecan-3-yl)pyridazin-3-yl)phenol], for which, at BRM, the DC50 was less than 10 nM and the “BRM IF Degradation Sinf (%)” value was “E (E indicates −30%-−70%)”. The DC50 on BRG1 is greater than 100 nM.
